Assay results reported in PubChem BioAssay (NCI).
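Tested at 5 concentrations; 48 h exposure; 96-well plates; endpoints linearly interpolated, else capped at highest concentration. GI50 marks 50% less growth. TGI is the concentration that stops growth completely.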

Columns and labels:
Experiment in all cases: NCI-60 cell line screen, 48 h
SNB-78 CNS = test system: SNB-78 CNS
XF 498 CNS = test system: XF 498 CNS
KM20L2 colon = test system: KM20L2 colon
M19-MEL melanoma = test system: M19-MEL melanoma
MDA-MB-231 breast = test system: MDA-MB-231 breast
T-47D breast = test system: T-47D breast
BT-549 breast = test system: BT-549 breast
DU-145 prostate = test system: DU-145 prostate
MDA-MB-435 = test system: MDA-MB-435
NCI/ADR-RES ovarian = test system: NCI/ADR-RES ovarian

## CCc1cccc(C(C)CC)c1N=C(NC(=O)c1ccccc1C(=O)NC(=Nc1c(CC)cccc1C(C)CC)SC)SC (stereo unspecified)
SNB-78 CNS
  TGI: > 100 µM
XF 498 CNS
  TGI: > 100 µM
KM20L2 colon
  TGI: 79.6 µM
M19-MEL melanoma
  TGI: > 100 µM

## O=C1Cc2cc(CCn3ccnc3)c(Cl)cc2N1
MDA-MB-231 breast
  GI50: 5.18 µM
  TGI: > 100 µM
T-47D breast
  GI50: 75.6 µM
  TGI: > 100 µM
BT-549 breast
  GI50: 9.51 µM
  TGI: > 100 µM
DU-145 prostate
  GI50: 8.02 µM
  TGI: > 100 µM
MDA-MB-435
  GI50: 3.12 µM
  TGI: 15.2 µM
NCI/ADR-RES ovarian
  GI50: 5.46 µM
  TGI: > 100 µM

## CCN1CCC[C@H]1c1cc(O)c2c(c1OC)C[C@H]1C[C@H]3[C@H](N)C(=O)C(C(N)=O)=C(O)[C@@]3(O)C(=O)C1=C2O
MDA-MB-231 breast
  GI50: 0.0431 µM
  TGI: 0.717 µM
T-47D breast
  GI50: 0.0448 µM
  TGI: 1.47 µM
BT-549 breast
  GI50: 0.0719 µM
  TGI: 1.28 µM
DU-145 prostate
  GI50: 0.0664 µM
  TGI: 2.16 µM
MDA-MB-435
  GI50: 0.0917 µM
  TGI: 2.34 µM
NCI/ADR-RES ovarian
  GI50: 0.435 µM
  TGI: > 61.5 µM

## Cc1cc(C)nc(NS(=O)(=O)c2ccc(Nc3c4ccccc4nc4c(C(=O)NCCN(C)C)ccc(Cl)c34)cc2)n1
SNB-78 CNS
  TGI: 35.5 µM
XF 498 CNS
  TGI: 17.3 µM
KM20L2 colon
  TGI: 12 µM
M19-MEL melanoma
  TGI: 7.84 µM

## COC(=O)[C@]12CC[C@@H](C)[C@H](C)[C@@H]1C1=CC[C@@H]3[C@@]4(C)C[C@@H](OC(=O)c5ccco5)[C@H](O)[C@@](C)(CO)[C@@H]4[C@H](O)C[C@@]3(C)[C@]1(C)CC2
MDA-MB-231 breast
  GI50: 2.23 µM
  TGI: 4.8 µM
T-47D breast
  GI50: 3.13 µM
  TGI: 9.17 µM
BT-549 breast
  GI50: 2.41 µM
  TGI: 5.21 µM
DU-145 prostate
  GI50: 2.78 µM
  TGI: 8.11 µM
MDA-MB-435
  GI50: 2.29 µM
  TGI: 5.75 µM
NCI/ADR-RES ovarian
  GI50: 2.59 µM
  TGI: 7.12 µM

## OC(c1ccccc1)(c1ccccc1)c1ccccn1
SNB-78 CNS
  TGI: > 100 µM
XF 498 CNS
  TGI: > 100 µM
KM20L2 colon
  TGI: > 100 µM
M19-MEL melanoma
  TGI: > 100 µM

## N=C(N)n1ncc(Cl)c(Cl)c1=O
SNB-78 CNS
  TGI: 3.98 µM
XF 498 CNS
  TGI: 3.86 µM
KM20L2 colon
  TGI: 19.3 µM
M19-MEL melanoma
  TGI: 3.77 µM

## O=C(c1cc(=O)c2ccc(O)cc2o1)c1ccc(Cl)cc1Cl
SNB-78 CNS
  TGI: > 100 µM
XF 498 CNS
  TGI: 62.6 µM
KM20L2 colon
  TGI: > 100 µM
M19-MEL melanoma
  TGI: > 100 µM

## O=C(NCCCN1CCN(CCCNC(=O)c2cnc3ccccc3n2)CC1)c1cnc2ccccc2n1
SNB-78 CNS
  TGI: > 100 µM
KM20L2 colon
  TGI: > 100 µM
M19-MEL melanoma
  TGI: > 100 µM

## CN(C)c1cccc(-c2cc(=O)c3ccccc3[nH]2)c1
SNB-78 CNS
  TGI: > 100 µM
KM20L2 colon
  GI50: 34.5 µM
  TGI: > 100 µM
M19-MEL melanoma
  TGI: > 100 µM

## COc1cc2c(cc1OCCCCNC(=O)c1cc3ccccc3[nH]1)N=CC1CCCN1C2=O (stereo unspecified)
MDA-MB-231 breast
  GI50: 14.9 µM
  TGI: 66.8 µM
T-47D breast
  GI50: 21.7 µM
  TGI: > 100 µM
BT-549 breast
  GI50: 8.79 µM
  TGI: 51.1 µM
DU-145 prostate
  GI50: 5.31 µM
  TGI: 69.8 µM
MDA-MB-435
  GI50: 20.3 µM
  TGI: 74.6 µM
NCI/ADR-RES ovarian
  GI50: 20.9 µM
  TGI: > 100 µM

## O=c1[nH]c(=S)[nH]c2c1sc(=S)n2-c1ccccc1
SNB-78 CNS
  TGI: > 100 µM
XF 498 CNS
  TGI: > 100 µM
KM20L2 colon
  TGI: > 100 µM
M19-MEL melanoma
  TGI: > 100 µM

## Nc1ccc2c(c1)C(=O)c1ccc(F)cc1-2
MDA-MB-231 breast
  TGI: > 100 µM
T-47D breast
  TGI: > 100 µM
BT-549 breast
  TGI: > 100 µM
DU-145 prostate
  TGI: > 100 µM
MDA-MB-435
  TGI: > 100 µM
NCI/ADR-RES ovarian
  TGI: > 100 µM

## CC(=O)CC(=O)CCCC(=O)Nc1ccc(Cl)cc1C
SNB-78 CNS
  TGI: > 100 µM
KM20L2 colon
  TGI: > 100 µM
M19-MEL melanoma
  TGI: > 100 µM

## CC1=C(C(=O)Nc2cccc(C(F)(F)F)c2)C(c2ccc(O)cc2)C(C(=O)Nc2cccc(C(F)(F)F)c2)=C(C)N1
SNB-78 CNS
  TGI: 83.2 µM
XF 498 CNS
  TGI: 8.06 µM
KM20L2 colon
  TGI: 54.6 µM
M19-MEL melanoma
  TGI: 40.3 µM

## CC(=O)Nc1ccc2nncnc2c1
MDA-MB-231 breast
  TGI: > 100 µM
T-47D breast
  TGI: > 100 µM
BT-549 breast
  TGI: > 100 µM
DU-145 prostate
  TGI: > 100 µM
MDA-MB-435
  TGI: > 100 µM
NCI/ADR-RES ovarian
  TGI: > 100 µM

## CCOC(=O)C1=C(Nc2ccccc2)OC/C1=N\NC(=O)Cc1ccccc1
SNB-78 CNS
  TGI: > 50 µM
XF 498 CNS
  TGI: > 50 µM
KM20L2 colon
  TGI: > 50 µM
M19-MEL melanoma
  TGI: > 50 µM

## CN(C)CC(C(=O)c1ccccc1)c1ccccc1 (stereo unspecified)
MDA-MB-231 breast
  GI50: 2.5 µM
  TGI: 10.1 µM
T-47D breast
  GI50: 2.03 µM
  TGI: 5.73 µM
BT-549 breast
  GI50: 1.87 µM
  TGI: 4.39 µM
DU-145 prostate
  GI50: 1.34 µM
  TGI: 3.15 µM
MDA-MB-435
  GI50: 1.9 µM
  TGI: 7.38 µM
NCI/ADR-RES ovarian
  GI50: 2.59 µM
  TGI: 8.37 µM

## CC(C)=CC/C=C(/C)[C@H]1CC[C@]2(C)[C@@H]1CC[C@@H]1[C@@]3(C)CCC(=O)NC(C)(C)[C@@H]3CC[C@]12C
MDA-MB-231 breast
  GI50: 20.5 µM
  TGI: 44.3 µM
T-47D breast
  GI50: 19.8 µM
  TGI: 91 µM
BT-549 breast
  GI50: 18.7 µM
  TGI: 43.5 µM
DU-145 prostate
  GI50: 16.9 µM
  TGI: 31.7 µM
MDA-MB-435
  GI50: 20.7 µM
  TGI: 48.9 µM
NCI/ADR-RES ovarian
  GI50: 22.2 µM
  TGI: 55.6 µM
